From publication PMC10376691, “Inhibition of Acetylcholinesterase and Amyloid-β Aggregation by Piceatannol and Analogs: Assessing In Vitro and In Vivo Impact on a Murine Model of Scopolamine-Induced Memory Impairment” (Antioxidants, 2023)
Read-outs that look alike come from different tables or passages of the source.

Columns and labels:
[1] = DPPH radical scavenging activity
Description: DPPH radical scavenging activity was assayed following a previous report, with some modifications. […] DMSO was used instead of a sample solution in the blank group. […] The scavenging activity of the DPPH radical (%) was calculated with the following equation: (△A515blank − △A515sample) ÷ △A515blank × 100%. The IC50 of the DPPH radical scavenging activity of PIC and its analogs or that of Trolox was calculated from each linear equation by three test concentrations and their radical scavenging activities.

recombinant human AChE = biological target: T1, recombinant human AChE (Homo sapiens, UniProt P22303); assay: AChE inhibitory activity in vitro (acetylthiocholine/DTNB); format: biochemical
T1 construct: purchased R&D Systems Inc. (Minneapolis, MN, USA)
Description: Commercially synthesized acetylthiocholine iodide was hydrolyzed using AChE to release thiocholine, which was coupled with DTNB to generate the yellowish 5-thio-2-nitrobenzoate for in vitro AChE activity assays. For the AChE inhibitory activity assay, each analog was dissolved in the DMSO, and final concentrations of 100, 200, and 500 μM were used for comparisons. An equal volume of DMSO instead of the sample solution was used in the blank group and expressed as 100% AChE activity. […] AChE inhibition (%) was calculated as follows: [(A405blank − A405sample)/(A405blank)] × 100%.

Aβ peptide (1–42) = biological target: T2, Aβ peptide (1–42) (Homo sapiens, UniProt P05067); assay: biochemical
T2 construct: The Aβ peptide (1–42) was synthesized and purchased from Kelowna International Scientific Inc; purchased Kelowna International Scientific Inc. (New Taipei, Taiwan); host or cells: chemical synthesis
Description: To prepare the 10 μM Aβ peptide working solution, commercial Aβ peptide was first weighted and dissolved in HFIP to 1 mM. Next, the solvent was evaporated in a hood and then re-dissolved using 100 μL of 60 mM NaOH. It was then diluted to 10 μM working solutions with 50 mM phosphate buffer (pH 7.4, containing 150 mM sodium chloride and 1 mM EDTA), following previous reports. […] DMSO instead of the sample solution was used as the control. The 50 mM phosphate buffer was used instead of the Aβ working solution as the sample blank. […] The IC50 of the inhibition against the Aβ aggregation of PIC and its analogs was calculated from each linear equation using three test concentrations and their inhibition capacities.

SH-SY5Y cells = assay: Cytotoxicity on SH-SY5Y cells (MTT); format: cell-based; conditions: 1, 2, 5 and 10 μM, MTT (Figure S1)
Description: The human SH-SY5Y neuroblastoma cell lines (CRL-2266, Lot No. 58979771) were purchased from American Type Culture Collection (Manassas, VA, USA) and used as models to investigate PIC and its analogs for neuroprotective activities against Aβ-induced cell deaths and the stimulation of neurite outgrowths. The SH-SY5Y cells were grown in DMEM/F-12 medium supplemented with 10% FBS at 37 °C under a humidified atmosphere and 5% CO2 [41]. […]. The SH-SY5Y cells (10,000 cells/well) were seeded and cultured in a DMEM/F-12 medium containing 10% FBS for 24 h at 37 °C under a humidified atmosphere and 5% CO2. […] The medium was then removed, and 40 μg/mL Aβ peptide (25–35) (dissolved in PBS) or an equal aliquot of PBS was added to the medium for another 24 h culture. The MTT was used to evaluate cell viability, and the absorbance at 570 nm was determined. The DMSO used instead of the sample solution was blank (recognized as 100%), and each treatment was expressed as relative cell viability (%). […] To measure cell viability and quantify the neurite outgrowths of the treated SH-SY5Y in a 96-well plate, the neurite outgrowth staining kit (a two-color fluorescence assay kit) was used, following a previous report or the protocol in the manufacturer’s manual (publication number: MAN0007224), which included a cell membrane-stained fluorescent dye (orange-red fluorescence), a cell viability indicator (green fluorescence), and a reagent for background masking. The fluorescence ratios of Ex555nm/Em565nm and Ex495nm/Em515nm were determined for the neurite outgrowths and the cell viabilities, respectively. […]
The following supporting information can be downloaded at: https://www.mdpi.com/article/10.3390/antiox12071362/s1. […] The MTT was used to evaluate cell viability, and the absorbance at 570 nm was determined. The DMSO used instead of the sample solution was blank (recognized as 100%), and each treatment was expressed as relative cell viability (%). […]

[2] = after oral RSV 75 mg/kg, athymic nude mice; cited from earlier work
[3] = system: mouse brain microvascular endothelial cell models; conditions: lipopolysaccharide-induced inflammation and oxidative stress; cited from earlier work
[4] = system: LPS-treated Swiss albino mice; conditions: 6-day treatment 2.5 mg/kg/day, LPS 0.8 mg/kg i.p.; cited from earlier work
db/db mice = conditions: oral 50 mg/kg for 2–3 weeks; cited from earlier work
[5] = oral administration to rats; cited from earlier work
[6] = rats, cited from earlier work
[7] = co-administration of PIC and RSV, each at 180 μmol/kg

T1 sequence (P22303 32-614): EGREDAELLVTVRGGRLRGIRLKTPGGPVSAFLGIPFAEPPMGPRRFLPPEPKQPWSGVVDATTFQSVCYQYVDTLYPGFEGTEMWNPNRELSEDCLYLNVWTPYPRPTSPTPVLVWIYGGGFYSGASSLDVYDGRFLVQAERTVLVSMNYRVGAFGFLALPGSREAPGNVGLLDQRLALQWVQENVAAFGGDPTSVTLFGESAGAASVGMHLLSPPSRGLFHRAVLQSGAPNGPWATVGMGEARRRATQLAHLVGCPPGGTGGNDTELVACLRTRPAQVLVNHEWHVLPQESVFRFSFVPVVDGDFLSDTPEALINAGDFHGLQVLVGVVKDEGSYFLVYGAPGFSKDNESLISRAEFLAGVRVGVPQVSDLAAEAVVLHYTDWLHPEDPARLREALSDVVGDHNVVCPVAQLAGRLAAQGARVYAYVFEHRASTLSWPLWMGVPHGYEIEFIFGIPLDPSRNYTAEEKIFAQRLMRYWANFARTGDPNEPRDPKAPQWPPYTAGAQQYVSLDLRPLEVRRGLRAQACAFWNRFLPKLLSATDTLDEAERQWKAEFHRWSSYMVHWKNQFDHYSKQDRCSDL
T2 sequence (P05067 672-713): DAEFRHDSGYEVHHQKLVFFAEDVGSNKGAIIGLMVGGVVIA

In the case of `Oc1cc(O)cc(C=Cc2ccc(O)c(O)c2)c1` [PIC, 3,5,3′,4′-tetrahydroxystilbene], the IC50 ([1]; 120 μM DPPH in methanol, 37 °C, 20 min) is reported as 40.2 µM, the “DPPH scavenging capacity, fold higher than that of RSV” value ([1]; ratio of IC50, vs RSV) is reported as 2.5 fold and the “DPPH scavenging capacity, fold higher than that of Trolox” value ([1]; ratio of IC50, vs Trolox) is reported as 2.07 fold. For the same molecule, the IC50 (recombinant human AChE) was 282 µM, the “AChE inhibitory capacity, fold higher than that of RSV” value (recombinant human AChE; vs RSV) was 1.23 fold and the IC50 (Aβ peptide (1–42)) was 0.48 µM. For the same molecule, the “anti-Aβ aggregation capacity, fold higher than that of RSV” value (Aβ peptide (1–42); vs RSV) was 2.94 fold, the “cytotoxicity on SH-SY5Y cells” value (SH-SY5Y cells) was “insignificant cytotoxicity” and the “PIC detected in the liver” value [2] was 11.50 nmol/g. The “PIC detected in the plasma” value [2] was 5.25 µmol/L, the “PIC detected in the skin” value [2] was 2.4 nmol/g and the BBB integrity [3] was “protect BBB integrity”. The “Aβ levels in brain extracts” value [4] was “reduce Aβ levels in brain extracts”, the “learning and memory functions” value [4] was “ameliorate” and the blood glucose levels (db/db mice) was “reduce blood glucose levels”. For the same molecule, the bioavailability [5] was 50.7%, the half-life [5] was 4.23 h and the “AUC0–8h of intact PIC/AUC0–8h of total PIC metabolites” value ([6]; PIC 90 μmol/kg) was 18.6%. The “AUC0–8h of intact PIC/AUC0–8h of total PIC metabolites” value ([6]; PIC 180 μmol/kg) was 23.9%, the “AUC0–8h of intact PIC/AUC0–8h of total PIC metabolites” value ([6]; PIC 360 μmol/kg) was 25.1% and the “AUC0–8h in plasma, intact compound” value [6, 7] was 8.6 µM·h. For the same molecule, the “AUC0–8h of intact PIC/AUC0–8h of total PIC metabolites” value [6, 7] was 16.3%, the “AUC0–8h in plasma, intact compound” value ([6]; intragastric, 90 μmol/kg) was 4.3 µM·h and the “AUC0–8h in plasma, intact compound” value ([6]; intragastric, 180 μmol/kg) was 12.3 µM·h. The “AUC0–8h in plasma, intact compound” value ([6]; intragastric, 360 μmol/kg) was 20.6 µM·h.
